In BigSolDB 2.1:

CC[C@H](C)[C@H](N)C(=O)O
solubility (mole fraction)
Settings	283.15 K	288.15 K	293.15 K	298.15 K	303.15 K	308.15 K	313.15 K	318.15 K	323.15 K	328.15 K
in 1,4-dioxane	–	0.00118	0.00132	0.00146	0.00172	0.00195	0.00226	0.00258	0.00303	0.00339
in 2-butanone	0.000223	0.000324	0.000415	0.000538	0.000646	0.000819	0.000978	0.00118	0.00145	–
in acetone	1.21e-05	1.47e-05	1.82e-05	2.04e-05	3.19e-05	4.37e-05	6.14e-05	8.28e-05	0.000132	–
in acetonitrile	0.000153	0.000185	0.000276	0.000303	0.000374	0.000451	0.000525	0.000582	0.0007	–
in ethanol	0.000199	0.000227	0.000285	0.000363	0.000532	0.000716	0.000881	0.00101	0.00118	–
in ethyl acetate	0.000398	0.000441	0.000482	0.000544	0.000609	0.000656	0.000722	0.000803	0.000891	–
in isobutanol	0.00106	0.00125	0.0015	0.00186	0.00216	0.00246	0.00298	0.00346	0.00394	–
in isopropanol	0.00147	0.00173	0.00207	0.00241	0.00285	0.0034	0.00394	0.00454	0.00494	–
in methanol	0.000793	0.000814	0.000848	0.000891	0.000935	0.000984	0.00105	0.00114	0.00125	–
in methyl acetate	0.00174	0.00194	0.00223	0.00263	0.00292	0.00332	0.00387	0.00472	0.00545	–
in n-butanol	9.12e-05	0.000142	0.000221	0.000282	0.000372	0.000468	0.000585	0.00068	0.000838	–
in n-propanol	0.000187	0.000226	0.000268	0.000349	0.000515	0.00069	0.000817	0.0009	0.00101	–
